Experimental data taken from patent US20130071927A1, “MEDIA AND METHODS FOR CELL CULTURE” (Sydney IVF Limited, priority 2010, published 2013).

Experiments:
Assay type in all cases: cell-based, human
hESC [1] = test: Feeder layer-free monolayer hESC culture on collagen I with protectants/modulators; conditions: for doubling time: collagen I coating + Y-27632 (10 μM), SIVF019 (FIG. 4)
Procedure: A single cell suspension was prepared similar to Example 4 by first washing a T25 flask with 5 ml PBS followed by trypsinising the cells with 2 ml 0.05% trypsin/5 mM EDTA, incubating at 37° C. for 10 mins and resuspending in 10 ml DMEM medium containing 10% FBS with vigorous pipetting. Cell number and viability was determined using the NucleoCounter and an appropriate number of cells centrifuged at 250×g for 4 mins prior to resuspension in conditioned KSR medium with 20 ng/ml bFGF plus additives. Conditioned KSR medium was produced by incubation of KSR medium on mitomycin-C treated human foetal fibroblasts for 48 hrs prior to harvest and storage at −20° C. As protectants/modulators the following additives were tested: • 1. 10 μM Y-27632 • 2. 20 μM OPH109 • 3. 2.5-10 μM blebbistatin • 4. 20 μM OPH109+2.5-10 μM blebbistatin
Cells were plated in collagen I (Cell Science and Technologies) coated 96 well optical bottom plates (BD) at a density of 2×10^4 cells/cm^2, and incubated at 37° C./5% CO2/5% O2. Media were changed on every 2nd day thereafter. […] This toxic effect could in turn be counteracted by using OPH109 in addition to blebbistatin. After 4-5 days in culture cells were fixed and immunofluorescence stained for the pluripotency markers Oct-3/4, SSEA-4 and Tra-1-81 as well as the early differentiation marker CD29. The cells were imaged and analysed using an IN Cell Analyzer 1000 and IN Cell Developer Toolbox 1.7 software. FIG. 3 summarises the results for 2 cell lines, indicating the ability of protectants/modulators to facilitate feeder-free monolayer culture of undifferentiated hESC. Next, the growth rate of monolayer hESC was assessed by imagining of Hoechst (Invitrogen) stained wells using the IN Cell Analyzer 1000 in 24 hr intervals. Cell number was determined by analysis using IN Cell Developer Toolbox 1.7 and IN Cell Analyzer 1000 Workstation 3.5 software. […] There was no significant difference in cell number or proliferation between uncoated and collagen I coated growth surfaces.

hESC [2] = test: Expansion of single-cell dissociated hESC on feeder cells using protectants in the culture medium
Procedure: Organ culture dishes with various hESC lines (Table 1) were washed once with 1 ml PBS and then dislodged by adding ˜0.2 ml 0.05% trypsin/5 mM EDTA and incubating at 37° C. for 10 mins. After the incubation 1 ml DMEM medium containing 10% FBS was added to inhibit the trypsin, and a single cell suspension was obtained by vigorous pipetting. The cells were counted, pelleted by centrifugation at 250×g for 4 min and resuspended in 5 ml KSR medium containing 20 ng/ml bFGF and 20 μM OPH109, a potent, cell permeable inhibitor of several caspases. The cell suspension was then transferred to a T25 culture flask containing fresh, mitomycin C treated human embryonic fibroblast feeder layer cells and incubated at 37° C., 5% CO2 and 5% O2. The medium was changed after 2 days (and every 2 days thereafter) using KSR medium plus 4 ng/ml bFGF. […] Over the course of 8-10 days these colonies continued growing in size. In contrast, control cultures set up in the same way but without OPH109 in the initial culture medium only contained very few hESC colonies, in concordance with the reported poor viability of hESC after single cell dissociation.
After 8-10 days the cells were harvested by preparing a single cell suspension using trypsin/EDTA as described above. Table 3 list the numbers of cells obtained for various cell lines, indicating a 10-15 fold expansion in a single step. The cells could be used for subsequent experiments or further expansion by plating 10,000 cells/cm^2 into culture vessels with fresh feeder layer cells using KSR medium plus 20 ng/ml bFGF and 20 μM OPH109 as the initial culture medium.
In another experiment, single cell suspensions were prepared from hESC cells grown in organ culture dishes using trypsin/EDTA as described above. Cell were then resuspended in 5 ml KSR medium containing 20 ng/ml bFGF and 2.5 μM blebbistatin, a potent, cell permeable inhibitor of myosin II. The cell suspension was then transferred to a T25 culture flask containing fresh, mitomycin C treated human embryonic fibroblast feeder layer cells and incubated at 37° C., 5% CO2 and 5% O2. The medium was changed after 2 days (and every 2 days thereafter) using KSR medium plus 4 ng/ml bFGF. […] Colonies continued to grow in size and density over 8-10 days until the cultures were passaged again for cell counting (summarised in Table 4) and replating of 2,000-10,000 cells/cm^2 into culture vessels with fresh feeder layer cells using KSR medium plus 20 ng/ml bFGF and 2.5 μM blebbistatin as the initial culture medium. Using this method cells were expanded for >10 passages, while maintaining their pluripotency and normal karyotypes.

hESC [3] = test: as above; conditions: Y27632 as protectant in the culture medium, on feeders
SIVF019 hESC = test: Feeder free expansion of hESC using monolayer culture; conditions: SIVF019 (collagenase passaged stock), within 9 days, 3 passages, 10 μM Y-27632 at plating, collagen I
Procedure: Manually passaged and collagenase passaged hESC lines (Table 1) grown on feeder cells were dissociated into single cells using 0.05% trypsin/5 mM EDTA as described in Example 5. Cells were plated into a collagen I coated plates at ˜2×10^4/cm^2 in Conditioned KSR medium with 20 ng/ml bFGF and 10 μM Y-27632, and incubated at 37° C./5% CO2/5% O2 (passage 1). The medium was changed the following day, then every 2nd day until cells reached ˜80% confluency. Cells were then dissociated into single cells using the 0.05% trypsin/5 mM EDTA protocol, with the exception of incubation with 0.05% trypsin/5 mM EDTA for 3 mins only, counted and plated at ˜2×10^4/cm^2 in the above described medium (passage 2). This process was repeated when cells reached confluency (passage 3). At each of the 3 passages, some of the dissociated cells were plated into 96 well plates for pluripotency assessment as described in Example 6. Within 9 days, the theoretical cell number obtained for SIVF019 (collagenase passaged stock) was 24 fold that originally plated (FIG. 6A). Manually passaged hESC SIVF002, SIVF006 and SIVF021 could also be successfully expanded as a monolayer (FIG. 6B).

SMILES: CC(C)[C@H](NC(=O)c1ccc2ccccc2n1)C(=O)N[C@@H](CC(=O)O)C(=O)COc1c(F)cccc1F [OPH109, Quinoline-Val-Asp-Difluorophenoxymethylketone]
- cell morphology in feeder-free culture (hESC [1]; 20 μM OPH109 by itself, collagen I coated 96 well plates): changed to larger cytoplasm/nuclear ratios indicating cell differentiation
- number of passages cell lines were maintained (typical morphology, pluripotency markers, stable karyotype kept) (hESC [2]; 20 μM OPH109 in initial culture medium, 10,000 cells/cm^2): > 10 passages
- expansion per passage (hESC [2]; 20 μM OPH109 in initial culture medium, >10 passages): 10-15 fold
- random images (10x objective) in which colonies were observed (hESC [2]; 20 μM OPH109 in initial culture medium, control without OPH109 1 out of 10): 6 out of the 10
- Viable cells after 1 expansion step (hESC [2]; SIVF006, 20 μM OPH109, from 1.23 × 10^5 cells in organ culture dish to T25 flask, 8-10 days): 1.97 × 10^6 cells
- Viable cells after 1 expansion step (hESC [2]; SIVF019, 20 μM OPH109, starting cells not determined, T25 flask, 8-10 days): 3.1 × 10^6 cells
- Viable cells after 1 expansion step (hESC [2]; SIVF021, 20 μM OPH109, from 2.19 × 10^5 cells in organ culture dish to T25 flask, 8-10 days): 3.00 × 10^6 cells
- Viable cells after 1 expansion step (hESC [2]; SIVF022, 20 μM OPH109, from 3.99 × 10^5 cells in organ culture dish to T25 flask, 8-10 days): 4.40 × 10^6 cells
- expansion in a single step (hESC [2]; various cell lines, 20 μM OPH109, 8-10 days): 10-15 fold

SMILES: C[C@@H](N)[C@H]1CC[C@H](C(=O)Nc2ccncc2)CC1 [Y-27632]
- morphology of the colonies (hESC [3]): flat monolayers of small cells with high nuclear to cytoplasmic ratios
- doubling time (hESC [1]; between 24 hrs and 48 hrs post-plating): 11 h
- doubling time (hESC [1]; between 48 hrs and 72 hrs post-plating): 17 h
- theoretical cell number relative to that originally plated (SIVF019 hESC): 24 fold
- cell viability after dissociation into single cell suspensions (hESC [2]; Y27632 as protectant in the culture medium, on feeders): dramatically increased cell viability

SMILES: Cc1ccc2c(c1)C(=O)C1(O)CCN(c3ccccc3)C1=N2 (stereo not drawn) [blebbistatin]
- toxicity (hESC [1]; blebbistatin 2.5-10 μM, feeder-free on collagen I): increased toxicity at higher concentrations
- concentration at which most potent as protectant/modulator (hESC [1]; tested 2.5-10 μM, feeder-free on collagen I): 2.5 µM
- number of passages cells were expanded (pluripotency and normal karyotypes maintained) (hESC [2]; 2.5 μM blebbistatin in initial culture medium, 2,000-10,000 cells/cm^2): > 10 passages
- Viable cells after 1 expansion step (hESC [2]; SIVF002, 2.5 μM blebbistatin, from 5.7 × 10^4 cells in organ culture dish to T25 flask): 1.5 × 10^6 cells
- Viable cells after 1 expansion step (hESC [2]; SIVF019 Exp 1, 2.5 μM blebbistatin, from 6.6 × 10^4 cells in organ culture dish): 3.4 × 10^6 cells
- Viable cells after 1 expansion step (hESC [2]; SIVF019 Exp 2, 2.5 μM blebbistatin, from 2.5 × 10^5 cells in organ culture dish): 2.4 × 10^6 cells
- Viable cells after 1 expansion step (hESC [2]; SIVF019 Exp 3, 2.5 μM blebbistatin, from 2.5 × 10^5 cells in organ culture dish): 3.4 × 10^6 cells
- Viable cells after 1 expansion step (hESC [2]; SIVF024, 2.5 μM blebbistatin, from 2.6 × 10^5 cells in organ culture dish): 1.6 × 10^6 cells
- Viable cells after 1 expansion step (hESC [2]; SIVF048, 2.5 μM blebbistatin, from 2.3 × 10^5 cells in organ culture dish): 2.0 × 10^6 cells
- protectant strength compared with OPH109 (hESC [2]; allows lower initial plating densities and greater expansion): more powerful protectant than OPH109
